# Results reported in patent publication US11180529B2, “Alpha-v beta-6 integrin ligands and uses thereof” (Arrowhead Pharmaceuticals, Inc., priority 2016, dated 2021).
# Non-standard residues stand in square brackets, D forms with d. No end group written: not given here. Cit = NC(=O)NCCC[C@H](N)C(=O)O; R(Me)2 = dimethyl-arginine; Abu = CC[C@H](N)C(=O)O; Aib = CC(C)(N)C(=O)O
# How the values were obtained:
# [1] = system: H2009 (human lung epithelial adenocarcinoma) cells, αvβ6 integrin expressing; experiment: αvβ6 ligand binding, flow cytometry of Cy5-labeled ligand-polymer conjugates, H2009 αvβ6 positive cells; assay type: cell-based; settings: Cy5-polymer conjugate 5 μg/ml, 37° C., 3 h, specific MFI ratio = sample MFI/no-ligand MFI
# Experimental: (§1) Each αvβ6 ligand was attached to a reversibly modified 1170-100B polymer cargo molecule. The 1170-100B polymer cargo molecule (a 56:44 ethoxyethylamine acrylate:propyl acrylate copolymer having a MW of about 45000) was labeled with Cy5 (NHS linker) and combined with aldehyde-PEG24-ACit at a weight ratio of 2:1 (polymer:aldehyde-PEG24-ACit) in 50 mM HEPES pH 9.0 buffer for 1 h at RT to form (aldehyde-PEG24-ACit)n-1170-100B wherein n is an integer greater than 0. Typically, n was about 10.
# (§2) The aldehyde-PEG24-ACit-modified polymer was then reacted with PEG12-ACit at a weight ratio of 1:8 (polymer:PEG12-ACit) in 50 mM HEPES, pH 9.0 buffer for 1 h at RT to form (aldehyde-PEG24-ACit)n-1170-100B-(CitA-PEG12)m, wherein m is an integer greater than 0.
# (§3) The modified polymer was then purified using a sephadex G-50 spin column and concentration determined:
# (§4) Each αvβ6 ligand was modified with HyNic to facilitate conjugation to the cargo molecule. Purified polymer was combined with αvβ6 ligand-(PEG)8-K-HyNic at a weight ratio of 1:1.9 (polymer: αvβ6 ligand) in 50 mM NaOAC-HOAc, pH 5.0 buffer at RT overnight to form the αvβ6 ligand-polymer conjugate. The αvβ6 ligand-polymer conjugate was purified using a sephadex G-50 spin column.
# Conjugation efficiency was quantified by measuring Absorbance of the αvβ6-polymer conjugate at 354 nm using an extinction coefficient of […] M^−1 cm^−1 for bis-aryl hydrazone bond.
# αvβ6-polymer conjugates were diluted with isotonic glucose solution to desired concentrations for further analysis.
# To assess for specificity of binding of the αvβ6 ligands to the αvβ6 integrin, each αvβ6 ligand or negative control peptide was conjugated to a Cy5-labeled polymer (as described above) and evaluated for binding to cells. […] H2009 (human lung epithelial adenocarcinoma) and CAPAN-2 (human pancreas adenocarcinoma) cells served as the αvβ6 positive-control cell lines. Cells were detached from culturing flasks with Accutase, washed in PBS, and seeded into 5 ml polystyrene round-bottom tubes at 200,000 cells in 200 μl complete media (culturing media with supplements and fetal calf serum). αvβ6 ligand-polymer conjugates or no-ligand-polymer conjugates were added at 5 μg/ml (polymer-Cy5 concentration) to cells, mixed and incubated at 37° C. for 3 h. Incubation at 37° C. facilitated ligand/receptor interaction which may result in static binding to the extracellular cell surface and/or internalized ligand/receptor complexes. The mixture was re-suspended at 1 h intervals. Following a 3 h incubation, cells were washed 2× with 4 ml chilled buffer (PBS-2% FCS) and re-suspended in 200 μl buffer containing 10 μM SYTOX blue stain for live/dead cell gating. Samples were analyzed on a BD Biosciences Canto II cytometer equipped with a violet (405 nm), blue (488 nm) and red (633 nm) lasers. Viable cells were initially gated as the SYTOX blue negative population on the C detector with the violet laser. These viable cells were then assessed for conjugate binding/uptake with the red laser as the Mean Fluorescence Intensity (MFI) of the Cy5 fluorophore. Data analyses were performed with FlowJo v10.1 software. A specific MFI Ratio (sMFIr) for each αvβ6 ligand was determined by the formula: specific sample MFI value/no-ligand MFI value.
# [2] = system: SKOV3 (human ovarian carcinoma) cells, very low αvβ6 cell surface expression; experiment: αvβ6 ligand binding, flow cytometry of Cy5-labeled ligand-polymer conjugates, SKOV3 negative-control cells; assay type: cell-based; settings: Cy5-polymer conjugate 5 μg/ml, 37° C., 3 h; specific MFI ratio = sample MFI/no-ligand MFI
# Experimental: as §1, §2, §3, §4
# Conjugation efficiency was quantified by measuring Absorbance of the αvβ6-polymer conjugate at 354 nm using an extinction coefficient of […] M^−1 cm^−1 for bis-aryl hydrazone bond. […]
# To assess for specificity of binding of the αvβ6 ligands to the αvβ6 integrin, each αvβ6 ligand or negative control peptide was conjugated to a Cy5-labeled polymer (as described above) and evaluated for binding to cells. […] Samples were analyzed on a BD Biosciences Canto II cytometer equipped with a violet (405 nm), blue (488 nm) and red (633 nm) lasers. […] These viable cells were then assessed for conjugate binding/uptake with the red laser as the Mean Fluorescence Intensity (MFI) of the Cy5 fluorophore. […] A specific MFI Ratio (sMFIr) for each αvβ6 ligand was determined by the formula: specific sample MFI value/no-ligand MFI value.
Substance,MFI H2009 [1],MFI H2009 ([1]; listed as AcR(Me)2GDLATLRQL),MFI SKOV3 [2]
Ac-R(Me)2GDLATLRQL (Ac-[R(Me)2]GDLATLRQL) [negative control peptide],1,did not show significant binding,0.9
CH3(CH2)2-RGDLAAbuLCitAib ({CH3(CH2)2}-RGDLA[Abu]L[Cit][Aib]),3.9,,
CH3(CH2)3-RGDLAAbuLCitAib ({CH3(CH2)3}-RGDLA[Abu]L[Cit][Aib]),4.7,,
CH3(CH2)4-RGDLAAbuLCitAib ({CH3(CH2)4}-RGDLA[Abu]L[Cit][Aib]),4.1,,
CH3CH2-RGDLAAbuLCitAib (CH3CH2-RGDLA[Abu]L[Cit][Aib]),4.4,,
Dap(guanidino)-GDLATLRQL ({Dap(guanidino)}-GDLATLRQL),3.4,,1.4
des-amino-RGDLATLRQL ({des‑amino}-RGDLATLRQL; not fully specified (residue 1); printed as des-amino-RGDLATLRQL),1.1,,0.8
meta-guanidino-benzoic-GDLATLRQL ({meta‑guanidino‑benzoic}-GDLATLRQL),4.5,,
